Patent publication US10849840B2, “Compositions and methods for stimulation MAGP-1 to improve the appearance of skin” (New Avon LLC, priority 2010, dated 2020)

Test system: MAGP-1
Test: MAGP-1 screening method: MAGP-1 mRNA (RT-qPCR, normalized to GAPDH) in treated normal human dermal fibroblasts
Format: cell-based
Settings: 48 hours treatment
Experimental: Normal human dermal fibroblasts (Cascade Biologics) were cultured in 100 mm plates with 10 ml of DMEM with 10% serum and incubated for 24 hours at 37° C. and 10% CO2. After 24 hours, stock solutions of test compounds/plant extracts were made in appropriate solvents (e.g., DMSO). Cells were treated with test material or respective vehicle control diluted in growth medium for 48 hours in a humidified 37° C. incubator with 10% CO2. After incubation, growth medium from each plate was removed and 800 ul of TRIzol Reagent (Invitrogen) was added to the plates. Cell lysates were collected and placed in −80° C. freezer until RNA isolation and analysis.
RNA was isolated by following the manufacturer's procedures. Briefly, the cell lysates were brought to room temperature. 0.2 ml of chloroform per 1 ml of TRIzol® Reagent was added. The tubes were shaken vigorously for 15 seconds and incubated at ambient temperature for 2 to 3 minutes. The samples were centrifuged at 12,000×g for 15 minutes at 2 to 8° C. Following centrifugation; the mixture separated into multiple phases, and RNA remains exclusively in the upper aqueous phase.
The aqueous phase was then transferred to a fresh tube. The RNA was precipitated from the aqueous phase by mixing with 0.5 ml of isopropyl alcohol per 1 ml of TRIzol® Reagent was used for the initial homogenization. Samples were incubated at 15 to 30° C. for 10 minutes and centrifuged at 12,000×g for 10 minutes at 2 to 8° C. […] The sample was mixed by vortexing and centrifuged at 7,500×g for 5 minutes at 2 to 8° C. The RNA pellet was briefly air dried. RNA was dissolved in RNase-free water, and the concentration of total RNA was determined by using Nanodrop (Thermo Scientific, DE).
Reverse Transcription (RT) reactions were conducted in a total volume of 20 μl. The RT mixture was prepared to contain 2 μl 10× TaqMan RT buffer, 4.4 μl 25 mM MgCl2, 4.0 μl dNTP mix, 1.0 μl Random Hexamer, 0.4 μl RNase Inhibitor, 0.5 μl MultiScribe Reverse Transcriptase (50 U/ml), 2.0 μg of RNA, and RNase-free water to make up the final volume of 20 μl. […] After the RT step, the reactions were stored at −20° C. for qPCR analysis.
Quantitative Polymerase Chain Reaction (qPCR) was conducted in a total volume of 20 μl. Applied Biosystems (AB) Universal PCR master mix was used. The mixture was prepared to contain 10 μl of Taqman Universal PCR mix, 1 μl of primer and probe mix, 2 μl of RT product, and 7 μl of deionized water.
The temperature profiles for QPCR were 50° C. for 2 min, and 95° C. for 10 min for 1 cycle, then at 95° C. for 15 sec, and 60° C. for 1 min for 40 cycles. Values for MAGP-1 mRNA were collected along with those for the reference genes GAPDH.

Molecule	Activity Level (percent increase in mRNA for MAGP-1 vs vehicle control) (concentration 0.01%)	Activity Level (percent increase in mRNA for MAGP-1 vs vehicle control) (concentration 0.001%)
CC(C)CN(Cc1ccc(OS(C)(=O)=O)cc1)S(=O)(=O)c1ccccc1 [Compound of structure I, 4-((N-isobutylphenylsulfonamido)methyl)phenyl methanesulfonate]	++++ (++++: >80%)	–
Cc1cccc(Cc2nc3ccccc3n2CC(=O)N2CCOCC2)c1 [Compound of structure II, 2-{2-[(3-methylphenyl)methyl]-1H-1,3-benzodiazol-1-yl}1-(morpholin-4-yl)ethan-1-one]	++++ (++++: >80%)	–
O=C(O)CCSCCC(=O)O [Thiodipropionic acid (TDPA), Thiodipropionic acid]	–	++ (++: 41-60%)
lysine-threonine-phenylalanine-lysine [KTFK]	–	++++ (++++: >80%)
